Assay [1] concerns the target Apoptosis regulator Bcl-2 (Homo sapiens, UniProt P10415). Description: Inhibition of Bcl-2 (unknown origin) using 5-FAM-Bid-BH3 as substrate preincubated for 30 mins before substrate addition measured after 20 mins by fluorescence polarization technique. Background: In fluorescence polarisation assays a small probe gives low polarisation when free and higher when bound to something large.

For assay [2], the system named is MDA-MB-231. Description: Antiproliferative activity against human MDA-MB-231 cells after 48 hrs by MTT assay. The settings on record: MDA-MB-231, 48 h. The format is functional, cell-based. (In general: Tetrazolium assays rely on reduction of a dye to a coloured formazan, in cell work by metabolically active cells.)
The subject of assay [3] is K562. Description: cells. The conditions noted are these: Homo sapiens, K562, 48 h.
Assay [4] is described as follows: cells. The settings on record: Homo sapiens, PC-3, 48 h.
Assay [5] deals with Bcl-2-like protein 1 (Homo sapiens, UniProt Q07817). Description: Inhibition of Bcl-XL (unknown origin) using 5-FAM-Bid-BH3 as substrate preincubated for 30 mins before substrate addition measured after 20 mins by fluorescence polarization technique. The conditions noted are these: for pKi: read-out: Ki.
Sequence of Bcl-2-like protein 1 (Q07817 whole entry): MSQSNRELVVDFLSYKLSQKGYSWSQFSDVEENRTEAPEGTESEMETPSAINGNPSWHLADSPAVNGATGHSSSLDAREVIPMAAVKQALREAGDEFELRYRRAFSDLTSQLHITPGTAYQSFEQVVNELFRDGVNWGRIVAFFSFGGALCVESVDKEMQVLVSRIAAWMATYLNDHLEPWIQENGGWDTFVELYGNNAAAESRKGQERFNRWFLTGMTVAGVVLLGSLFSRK
For assay [6], the target named is Induced myeloid leukemia cell differentiation protein Mcl-1 (Homo sapiens, UniProt Q07820). The assay can be described thus: Inhibition of Mcl-1 (unknown origin) using 5-FAM-Bid-BH3 as substrate preincubated for 30 mins before substrate addition measured after 20 mins by fluorescence polarization technique.
Sequence of Induced myeloid leukemia cell differentiation protein Mcl-1 (Q07820 whole entry): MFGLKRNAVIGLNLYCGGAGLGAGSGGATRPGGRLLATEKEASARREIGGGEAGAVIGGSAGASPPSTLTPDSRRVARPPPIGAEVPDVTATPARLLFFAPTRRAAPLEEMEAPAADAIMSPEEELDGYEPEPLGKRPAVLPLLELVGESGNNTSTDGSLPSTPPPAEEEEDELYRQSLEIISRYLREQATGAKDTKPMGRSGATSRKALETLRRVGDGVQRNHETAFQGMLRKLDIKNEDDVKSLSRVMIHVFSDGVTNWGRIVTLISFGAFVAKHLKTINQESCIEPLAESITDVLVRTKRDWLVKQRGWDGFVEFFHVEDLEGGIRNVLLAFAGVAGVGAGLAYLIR

pIC50, pKi: −log10 of the molar value.

Sequence of Apoptosis regulator Bcl-2 (P10415 whole entry): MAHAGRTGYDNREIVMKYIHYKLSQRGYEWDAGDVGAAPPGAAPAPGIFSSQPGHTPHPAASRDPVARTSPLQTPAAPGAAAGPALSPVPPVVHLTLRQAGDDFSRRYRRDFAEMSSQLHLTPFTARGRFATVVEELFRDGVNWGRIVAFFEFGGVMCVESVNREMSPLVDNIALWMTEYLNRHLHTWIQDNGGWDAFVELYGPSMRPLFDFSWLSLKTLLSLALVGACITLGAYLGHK

As usually defined, the pKi is the negative decadic logarithm of the Ki, by convention in mol/L. `O=C(NS(=O)(=O)c1ccc([N+](=O)[O-])cc1)[C@H](Cc1ccccc1)N1C(=O)/C(=C/c2ccc(-c3ccccc3)cc2)SC1=S` showed a negative logarithm of the Ki (pKi) in assay [1] of 6.35. `O=C(NS(=O)(=O)c1ccc([N+](=O)[O-])cc1)[C@H](Cc1c[nH]c2ccccc12)N1C(=O)/C(=C/c2ccc(-c3ccc(C(F)(F)F)cc3)cc2)SC1=S`: the pKi in assay [1] was 6.12. The molecule `O=C(NS(=O)(=O)c1ccc([N+](=O)[O-])cc1)[C@H](Cc1c[nH]c2ccccc12)N1C(=O)/C(=C/c2ccc(-c3ccc([N+](=O)[O-])cc3)cc2)SC1=S` showed a negative-log Ki (pKi) in assay [1] of 7.10. Still for that read-out and setting: then `O=C(NS(=O)(=O)c1ccc(Cl)c([N+](=O)[O-])c1)[C@H](Cc1ccc(Br)cc1)N1C(=O)/C(=C/c2ccc(-c3ccc(C(F)(F)F)cc3)cc2)SC1=S`, with 5.92. On the same count and under the same terms, then `O=C(NS(=O)(=O)c1ccc([N+](=O)[O-])cc1)[C@H](Cc1ccccc1)N1C(=O)/C(=C/c2ccc(-c3ccc([N+](=O)[O-])cc3)cc2)SC1=S`, with 6.10; and `O=C(NS(=O)(=O)c1ccc(Cl)c([N+](=O)[O-])c1)[C@H](Cc1ccccc1)N1C(=O)/C(=C/c2ccc(-c3ccc(Cl)cc3)cc2)SC1=S`, with 5.72. For orientation: pIC50 means the negative decadic logarithm of the IC50, by convention in mol/L. A high value points to a low IC50. Regarding `O=C(NS(=O)(=O)c1ccc([N+](=O)[O-])cc1)[C@H](Cc1ccc(Br)cc1)N1C(=O)/C(=C/c2ccc(-c3ccc(Cl)cc3)cc2)SC1=S`, the pIC50 in assay [2] is 4.54; in assay [3], 5.03; in assay [4] it was 4.62. In addition, the values for the pKi in assay [1], in assay [5] and in assay [6] were 6.15, 6.31 and 7.20, respectively.

As for `O=C(NS(=O)(=O)c1ccc([N+](=O)[O-])cc1)[C@H](Cc1ccc(Br)cc1)N1C(=O)/C(=C/c2ccc(-c3ccc([N+](=O)[O-])cc3)cc2)SC1=S`, the pIC50 was 4.52 in assay [2], 5.10 in assay [3] and 4.39 in assay [4]. Further, the results for the negative logarithm of the Ki (pKi) in assay [1] and in assay [6] were 6.44 and 7.13, respectively. In assay [5], the Ki entry was “Not Active”. Take `O=C(NS(=O)(=O)c1ccc(Cl)c([N+](=O)[O-])c1)[C@H](Cc1c[nH]c2ccccc12)N1C(=O)/C(=C/c2ccc(-c3ccc([N+](=O)[O-])cc3)cc2)SC1=S`: the pKi in assay [1] is 6.12. As for `Cc1cc2c(C(C)C)c(O)c(O)c(C=O)c2c(O)c1-c1c(C)cc2c(C(C)C)c(O)c(O)c(C=O)c2c1O` [GOSSYPOL], the pIC50 in assay [2] was 5.04; in assay [3] it was 5.34; in assay [4], 5.20. On to `O=C(NS(=O)(=O)c1ccccc1)[C@H](Cc1c[nH]c2ccccc12)N1C(=O)/C(=C/c2ccc(-c3ccc([N+](=O)[O-])cc3)cc2)SC1=S`, for which the negative logarithm of the Ki (pKi) in assay [1] is 6.27.

In assay [1], `O=C(NS(=O)(=O)c1ccc(Cl)c([N+](=O)[O-])c1)[C@H](Cc1ccccc1)N1C(=O)/C(=C/c2ccc(-c3ccccc3)cc2)SC1=S` showed a pKi of 6.27.

`O=C(NS(=O)(=O)c1ccc(Cl)c([N+](=O)[O-])c1)[C@H](Cc1ccccc1)N1C(=O)/C(=C/c2ccc(-c3ccc([N+](=O)[O-])cc3)cc2)SC1=S`: in assay [1], the pKi is 5.62.

`COC(=O)c1ccc(-c2ccc(/C=C3\SC(=S)N([C@@H](Cc4ccccc4)C(=O)NS(=O)(=O)c4ccc(Cl)c([N+](=O)[O-])c4)C3=O)cc2)cc1` gave a pKi in assay [1] of 5.85.

In the case of `O=C(NS(=O)(=O)c1ccc(Cl)c([N+](=O)[O-])c1)[C@H](Cc1ccc(Br)cc1)N1C(=O)/C(=C/c2ccc(-c3ccc(Cl)cc3)cc2)SC1=S`, the pKi in assay [1] is 6.15. As for `CC[C@H](C)[C@@H](C(=O)NS(=O)(=O)c1ccccc1)N1C(=O)/C(=C/c2ccc(-c3ccccc3)cc2)SC1=S`, in assay [1], the pKi was 6.39. The same measure, in the same setting: then `CSCC[C@@H](C(=O)NS(=O)(=O)c1ccccc1)N1C(=O)/C(=C/c2ccc(-c3ccccc3)cc2)SC1=S`, with 6.02; and `O=C(NS(=O)(=O)c1ccc(Cl)cc1)[C@H](Cc1ccccc1)N1C(=O)/C(=C/c2ccc(-c3ccccc3)cc2)SC1=S`, with 6.29; and `O=C(NS(=O)(=O)c1ccccc1)[C@H](Cc1ccccc1)N1C(=O)/C(=C/c2ccc(-c3ccc([N+](=O)[O-])cc3)cc2)SC1=S`, with 6.34. Same read-out and setting: with `O=C(NS(=O)(=O)c1ccccc1)[C@H](Cc1c[nH]c2ccccc12)N1C(=O)/C(=C/c2ccc(-c3ccc(Cl)cc3)cc2)SC1=S` the figure was 6.33; with `CC(C)[C@@H](C(=O)NS(=O)(=O)c1ccccc1)N1C(=O)/C(=C/c2ccc(-c3ccccc3)cc2)SC1=S`, 6.20. On the same count and under the same terms, then `COC(=O)c1ccc(-c2ccc(/C=C3\SC(=S)N([C@@H](Cc4ccc(Br)cc4)C(=O)NS(=O)(=O)c4ccccc4)C3=O)cc2)cc1`, with 6.34; and `O=C(NS(=O)(=O)c1ccc([N+](=O)[O-])cc1)[C@H](Cc1ccccc1)N1C(=O)/C(=C/c2ccc(-c3ccc(C(F)(F)F)cc3)cc2)SC1=S`, with 6.07. On to `O=C(NS(=O)(=O)c1ccccc1)[C@H](Cc1ccc(Br)cc1)N1C(=O)/C(=C/c2ccc(-c3ccc([N+](=O)[O-])cc3)cc2)SC1=S`, for which the negative logarithm of the IC50 (pIC50) in assay [2] is 4.34; in assay [3], less than 4.30; in assay [4], less than 4.30. In addition, the values for the pKi in assay [1], in assay [5] and in assay [6] were 6.38, 6.27 and 7.07, respectively. As for `O=C(NS(=O)(=O)c1ccccc1)[C@H](Cc1ccc(Br)cc1)N1C(=O)/C(=C/c2ccc(-c3ccc(Cl)cc3)cc2)SC1=S`, the pIC50 in assay [2] was 4.54; in assay [3] it was 4.68; in assay [4], less than 4.30. The pKi in assay [1] is 6.33; in assay [5], 6.41; in assay [6], 7.18. With `Cc1ccc(-c2ccc(/C=C3\SC(=S)N([C@@H](Cc4c[nH]c5ccccc45)C(=O)NS(=O)(=O)c4ccc([N+](=O)[O-])cc4)C3=O)cc2)cc1`, in assay [1], the pKi is 6.14. On the same count and under the same terms, with `O=C(NS(=O)(=O)c1ccc([N+](=O)[O-])cc1)[C@H](Cc1c[nH]c2ccccc12)N1C(=O)/C(=C/c2ccc(-c3ccc(Cl)cc3)cc2)SC1=S` the figure was 6.17. As to `Cc1ccc(S(=O)(=O)NC(=O)[C@H](Cc2ccccc2)N2C(=O)/C(=C/c3ccc(-c4ccccc4)cc3)SC2=S)cc1`, the pKi is 6.14 in assay [1], 6.18 in assay [5] and 6.60 in assay [6]. Turning to `O=C(NS(=O)(=O)c1ccc([N+](=O)[O-])cc1)[C@H](Cc1ccccc1)N1C(=O)/C(=C/c2ccc(-c3ccc(Cl)cc3)cc2)SC1=S`, the pKi in assay [1] was 6.18. Same read-out and setting: then `C[C@@H](C(=O)NS(=O)(=O)c1ccccc1)N1C(=O)/C(=C/c2ccc(-c3ccccc3)cc2)SC1=S`, with 5.62. On the same count and under the same terms, with `O=C(NS(=O)(=O)c1ccc(Cl)c([N+](=O)[O-])c1)[C@H](Cc1ccccc1)N1C(=O)/C(=C/c2ccc(-c3ccc(C(F)(F)F)cc3)cc2)SC1=S` the figure was 6.06.

For the molecule `O=C(NS(=O)(=O)c1ccc(Cl)c([N+](=O)[O-])c1)[C@H](Cc1ccc(Br)cc1)N1C(=O)/C(=C/c2ccc(-c3ccc([N+](=O)[O-])cc3)cc2)SC1=S`, in assay [1], the pKi was less than 4.30. The same measure, in the same setting: then `O=C(NS(=O)(=O)c1ccc([N+](=O)[O-])cc1)[C@H](Cc1ccc(Br)cc1)N1C(=O)/C(=C/c2ccc(-c3ccc(C(F)(F)F)cc3)cc2)SC1=S`, with 6.05; and `O=C(NS(=O)(=O)c1ccccc1)[C@H](Cc1ccc(Br)cc1)N1C(=O)/C(=C/c2ccc(-c3ccccc3)cc2)SC1=S`, with 6.28. The same measure, in the same setting: then `O=C(NS(=O)(=O)c1ccccc1)[C@H](Cc1c[nH]c2ccccc12)N1C(=O)/C(=C/c2ccc(-c3ccccc3)cc2)SC1=S`, with 6.14; and `O=C(NS(=O)(=O)c1ccc(Cl)c([N+](=O)[O-])c1)[C@H](Cc1c[nH]c2ccccc12)N1C(=O)/C(=C/c2ccc(-c3ccc(Cl)cc3)cc2)SC1=S`, with 5.25.

The values above are taken from ChEMBL document CHEMBL3399977, “Design, synthesis and preliminary bioactivity studies of 2-thioxo-4-thiazolidinone derivatives as Bcl-2 inhibitors” (Bioorg Med Chem, 2015).
